Where a name gives a salt, the structure may show the parent alone. Blank lines part the entries; values can stand above or below the compound they belong to. Activity calls are given as the source filed them.
Key:
[1] = biological target: 26S proteasome non-ATPase regulatory subunit 14 (Homo sapiens, UniProt O00487); assay: inhibition of proteasome subunit RPN11 – biochemical, fluorescence polarization, uHTS hits, confirmation (AID 602368); format: functional
[2] = biological target: 72 kDa type IV collagenase (Homo sapiens, UniProt P08253); assay: Dose Response validation of uHTS RPN11 inhibitor hits using a MMP-2 Fluorescence assay.; format: functional
Sequence of 72 kDa type IV collagenase (P08253 whole entry): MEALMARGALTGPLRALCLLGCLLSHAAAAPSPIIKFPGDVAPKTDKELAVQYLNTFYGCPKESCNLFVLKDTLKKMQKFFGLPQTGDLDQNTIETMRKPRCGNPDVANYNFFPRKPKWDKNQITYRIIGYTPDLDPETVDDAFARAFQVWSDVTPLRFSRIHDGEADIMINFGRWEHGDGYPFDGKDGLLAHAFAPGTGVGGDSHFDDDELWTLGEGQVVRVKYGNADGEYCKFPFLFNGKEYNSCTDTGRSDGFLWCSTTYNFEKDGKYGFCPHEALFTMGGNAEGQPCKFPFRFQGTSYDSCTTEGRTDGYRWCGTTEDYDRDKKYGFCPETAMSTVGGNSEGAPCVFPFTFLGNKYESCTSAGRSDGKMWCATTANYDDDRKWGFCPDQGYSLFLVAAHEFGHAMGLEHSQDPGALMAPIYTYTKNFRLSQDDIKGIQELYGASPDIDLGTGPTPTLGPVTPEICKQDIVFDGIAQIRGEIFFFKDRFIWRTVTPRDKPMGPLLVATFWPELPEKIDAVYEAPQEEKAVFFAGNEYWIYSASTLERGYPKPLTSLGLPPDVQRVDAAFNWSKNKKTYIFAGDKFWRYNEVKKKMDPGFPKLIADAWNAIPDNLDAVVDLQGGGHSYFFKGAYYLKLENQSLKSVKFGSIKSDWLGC

Prothrombin = Prothrombin (Bos taurus, UniProt P00735); assay: thrombin protease inhibitors – biochemical, fluorescence polarization, uHTS hits, dose response (AID 602369); format: functional
[3] = bead-based luminescence quenchers, dual-tagged ARNT – biochemical, AlphaScreen, cherry-pick, artefact control for ARNT-TACC3 interaction inhibitor project, dose response (AID 651705); format: functional;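 further: AlphaScreen bead proximity signal that flags compounds interfering with the detection technology; potency reflects signal decrease which marks the compound as an assay artifact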
[4] = IC50 of Artemis nuclease activity blockers – biochemical, fluorescence intensity, dose response (AID 720701); format: functional;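 further: Artemis endonuclease enzyme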
[5] = NIH-3T3 fibroblast cytotoxicity, dose response, cytotoxicity control, cell-based, fluorescence, Alamar Blue, secondary assay (AID 2327); format: functional;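 further: NIH-3T3 mouse fibroblasts cultured with fluconazole at 8 µg/mL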
[6] = fluconazole-exposed Candida albicans growth modulators – fluorescence, retest, confirmation (AID 2467); format: functional, cell-based
[7] = Trypanosoma cruzi growth suppression in host cells – NIH3T3 host cells, beta-gal luminescence, confirmation (AID 2044); format: functional, cell-based;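 further: intracellular parasites grown in NIH/3T3 mouse fibroblasts as host cells; luminescent beta-galactosidase reporter signal from transgenic T. cruzi replicating inside host cells; inhibitors lower the luminescence signal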
[8] = biological target: T1, Serine/threonine-protein phosphatase (Candida dubliniensis (strain CD36 / CBS 7987 / NCPF 3949 / NRRLY-17841) (Yeast), UniProt B9W6M3); assay: blockers of CaCl2-induced CDRE-lacZ signaling – S. cerevisiae, luminescence, secondary, dose response (AID 2388); format: functional, cell-based;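 further: yeast reporter cells carrying a calcineurin-responsive lacZ construct stimulated with calcium chloride; luminescent beta-galactosidase reporter signal in whole cells rather than isolated phosphatase activity; potency for inhibition where a drop in reporter signal means calcineurin blockade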
T1 sequence (B9W6M3 whole entry): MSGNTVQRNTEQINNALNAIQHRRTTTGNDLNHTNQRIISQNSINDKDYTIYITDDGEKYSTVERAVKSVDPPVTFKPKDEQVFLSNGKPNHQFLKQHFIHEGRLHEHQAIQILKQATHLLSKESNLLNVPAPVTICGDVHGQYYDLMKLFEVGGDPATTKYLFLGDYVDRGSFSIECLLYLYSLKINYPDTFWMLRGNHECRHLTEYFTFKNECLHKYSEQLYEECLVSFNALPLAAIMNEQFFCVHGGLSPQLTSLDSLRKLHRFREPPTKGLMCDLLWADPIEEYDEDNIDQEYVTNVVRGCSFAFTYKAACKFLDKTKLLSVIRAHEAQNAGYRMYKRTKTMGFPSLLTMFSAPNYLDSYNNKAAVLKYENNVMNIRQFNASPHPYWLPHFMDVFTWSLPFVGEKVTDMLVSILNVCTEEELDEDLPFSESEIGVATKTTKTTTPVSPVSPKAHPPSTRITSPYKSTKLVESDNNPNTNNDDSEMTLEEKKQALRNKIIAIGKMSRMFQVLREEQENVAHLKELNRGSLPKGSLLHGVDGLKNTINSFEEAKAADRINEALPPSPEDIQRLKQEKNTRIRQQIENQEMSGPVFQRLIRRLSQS

[9] = NIH3T3 cell viability loss – ATP luminescence, mouse fibroblasts, counter-screen, dose response (AID 2010); format: functional, cell-based;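 further: cells exposed to compound for about 90 hours before reading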
Beta-galactosidase = Beta-galactosidase (Escherichia coli, UniProt Q8VNN2); assay: detection-enzyme interference by beta-gal modulators – biochemical, E. coli enzyme, set 3, artefact control for CCR6 antagonist project, dose response (AID 504712); format: functional
Sequence of Beta-galactosidase (Q8VNN2 whole entry): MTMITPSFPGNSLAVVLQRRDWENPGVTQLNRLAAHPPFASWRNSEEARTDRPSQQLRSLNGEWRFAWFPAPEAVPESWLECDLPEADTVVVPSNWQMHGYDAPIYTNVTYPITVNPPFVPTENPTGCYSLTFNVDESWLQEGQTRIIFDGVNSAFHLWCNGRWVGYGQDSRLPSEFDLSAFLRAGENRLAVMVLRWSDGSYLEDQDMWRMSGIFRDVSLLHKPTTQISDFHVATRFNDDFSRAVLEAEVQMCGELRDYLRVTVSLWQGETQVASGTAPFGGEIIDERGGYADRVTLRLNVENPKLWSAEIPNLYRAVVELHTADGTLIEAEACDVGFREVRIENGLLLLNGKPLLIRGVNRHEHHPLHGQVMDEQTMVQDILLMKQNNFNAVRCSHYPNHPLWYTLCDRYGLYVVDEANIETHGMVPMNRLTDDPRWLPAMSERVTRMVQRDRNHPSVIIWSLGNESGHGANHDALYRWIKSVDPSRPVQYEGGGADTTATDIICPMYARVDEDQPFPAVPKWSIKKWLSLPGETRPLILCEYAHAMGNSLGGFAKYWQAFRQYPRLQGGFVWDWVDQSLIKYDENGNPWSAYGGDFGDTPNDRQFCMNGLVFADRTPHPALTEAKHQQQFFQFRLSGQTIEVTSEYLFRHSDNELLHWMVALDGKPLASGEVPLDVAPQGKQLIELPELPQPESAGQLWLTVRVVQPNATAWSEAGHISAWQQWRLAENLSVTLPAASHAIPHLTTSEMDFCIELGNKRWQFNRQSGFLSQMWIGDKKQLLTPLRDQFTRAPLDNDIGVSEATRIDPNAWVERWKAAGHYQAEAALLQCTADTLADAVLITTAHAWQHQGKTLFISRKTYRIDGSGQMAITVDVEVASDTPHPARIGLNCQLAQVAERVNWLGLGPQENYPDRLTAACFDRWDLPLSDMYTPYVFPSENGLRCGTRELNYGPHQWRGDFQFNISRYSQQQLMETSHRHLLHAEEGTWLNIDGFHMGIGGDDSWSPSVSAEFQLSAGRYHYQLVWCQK

[10] = biological target: Heat shock protein HSP 90-alpha (Homo sapiens, UniProt P07900); format: functional, organism-based
[11] = biological target: ATP-dependent molecular chaperone HSP82 (Candida albicans (strain WO-1) (Yeast), UniProt C4YTQ8); assay: steroid-induced GRE reporter decrease in yeast – S. cerevisiae, luminescence, Hsp90 inhibitor project, dose response (AID 2400); format: functional, cell-based;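 further: beta-galactosidase luminescence from glucocorticoid response element reporter as proxy for Hsp90 function; inhibitor potency where signal loss means Hsp90 inhibition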
[12] = mammalian cell viability loss – Alamar Blue, dry powder, cytotoxicity control for antifungal single agent project, dose response (AID 602188); format: functional, cell-based
Melanocortin receptor 4 = Melanocortin receptor 4 (Homo sapiens, UniProt P32245); format: functional, cell-based;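 further: Cell-based assay with luminescence read-out, confirmatory dose-response testing for agonist activity of biased ligands at MC4R; human U2OS cells with tagged receptor and beta-arrestin; potency of agonists that increase receptor coupling to beta-arrestin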
Sequence of Melanocortin receptor 4 (P32245 whole entry): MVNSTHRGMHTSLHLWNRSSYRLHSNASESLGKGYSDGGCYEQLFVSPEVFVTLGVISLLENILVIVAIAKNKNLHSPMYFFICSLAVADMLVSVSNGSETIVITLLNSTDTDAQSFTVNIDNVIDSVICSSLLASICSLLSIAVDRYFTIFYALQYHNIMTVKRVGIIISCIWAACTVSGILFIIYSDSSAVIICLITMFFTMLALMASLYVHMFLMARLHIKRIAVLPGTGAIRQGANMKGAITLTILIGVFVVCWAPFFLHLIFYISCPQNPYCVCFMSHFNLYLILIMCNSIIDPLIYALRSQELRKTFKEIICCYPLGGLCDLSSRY

[13] = biological target: T2, Aryl hydrocarbon receptor (Homo sapiens, UniProt P35869); settings: Potency;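 further: confirmatory quantitative high-throughput screen measuring activation of the AhR signaling pathway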
T2 sequence (P35869 whole entry): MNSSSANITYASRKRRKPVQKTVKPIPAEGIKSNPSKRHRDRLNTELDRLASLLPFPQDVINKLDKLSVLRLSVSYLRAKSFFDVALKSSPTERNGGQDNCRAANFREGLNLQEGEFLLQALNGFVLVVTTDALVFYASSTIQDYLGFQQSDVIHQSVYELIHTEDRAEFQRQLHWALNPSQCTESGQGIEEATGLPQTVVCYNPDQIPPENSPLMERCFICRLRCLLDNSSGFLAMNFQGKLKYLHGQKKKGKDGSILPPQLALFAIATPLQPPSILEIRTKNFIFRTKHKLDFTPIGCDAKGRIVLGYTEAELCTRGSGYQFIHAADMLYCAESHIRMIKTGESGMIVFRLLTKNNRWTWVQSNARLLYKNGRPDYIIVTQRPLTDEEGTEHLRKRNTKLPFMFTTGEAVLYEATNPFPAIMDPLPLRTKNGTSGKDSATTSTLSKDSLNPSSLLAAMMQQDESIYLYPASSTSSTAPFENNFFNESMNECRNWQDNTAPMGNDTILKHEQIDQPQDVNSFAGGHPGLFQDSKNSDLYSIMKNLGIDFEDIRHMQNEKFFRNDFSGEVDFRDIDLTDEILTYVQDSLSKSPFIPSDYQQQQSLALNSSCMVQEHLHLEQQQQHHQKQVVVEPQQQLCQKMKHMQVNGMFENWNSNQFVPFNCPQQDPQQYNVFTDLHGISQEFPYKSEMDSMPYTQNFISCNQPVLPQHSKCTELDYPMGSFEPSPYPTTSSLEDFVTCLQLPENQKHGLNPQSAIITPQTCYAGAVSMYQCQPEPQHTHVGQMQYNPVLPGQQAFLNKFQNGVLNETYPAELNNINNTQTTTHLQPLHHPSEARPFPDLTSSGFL

[14] = biological target: Serine/threonine-protein kinase pim-1 (Homo sapiens, UniProt P11309); format: functional
[15] = biological target: Cell division cycle 7-related protein kinase (Homo sapiens, UniProt O00311); format: functional;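 further: value obtained from a kinome-wide kinase panel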
Sequence of Cell division cycle 7-related protein kinase (O00311 whole entry): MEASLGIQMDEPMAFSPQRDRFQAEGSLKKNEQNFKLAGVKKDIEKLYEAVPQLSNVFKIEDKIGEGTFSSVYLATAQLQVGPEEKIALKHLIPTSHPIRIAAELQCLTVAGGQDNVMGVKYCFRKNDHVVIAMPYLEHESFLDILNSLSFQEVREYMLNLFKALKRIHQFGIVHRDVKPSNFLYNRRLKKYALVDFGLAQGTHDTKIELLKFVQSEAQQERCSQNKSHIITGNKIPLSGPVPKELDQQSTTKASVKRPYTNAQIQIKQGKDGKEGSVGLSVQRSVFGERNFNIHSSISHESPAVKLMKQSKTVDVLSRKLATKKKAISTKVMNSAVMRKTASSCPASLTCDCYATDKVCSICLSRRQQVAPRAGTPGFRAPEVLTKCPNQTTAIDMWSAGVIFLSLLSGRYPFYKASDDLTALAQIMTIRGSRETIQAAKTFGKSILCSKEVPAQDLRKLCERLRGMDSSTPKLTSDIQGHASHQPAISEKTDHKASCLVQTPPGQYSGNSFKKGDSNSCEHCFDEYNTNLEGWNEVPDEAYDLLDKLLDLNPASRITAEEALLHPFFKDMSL

[16] = biological target: Homeodomain-interacting protein kinase 2 (Homo sapiens, UniProt Q9H2X6); format: functional;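 further: measured within a kinome-wide kinase profiling panel, HIPK2 being one panel member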
Sequence of Homeodomain-interacting protein kinase 2 (Q9H2X6 whole entry): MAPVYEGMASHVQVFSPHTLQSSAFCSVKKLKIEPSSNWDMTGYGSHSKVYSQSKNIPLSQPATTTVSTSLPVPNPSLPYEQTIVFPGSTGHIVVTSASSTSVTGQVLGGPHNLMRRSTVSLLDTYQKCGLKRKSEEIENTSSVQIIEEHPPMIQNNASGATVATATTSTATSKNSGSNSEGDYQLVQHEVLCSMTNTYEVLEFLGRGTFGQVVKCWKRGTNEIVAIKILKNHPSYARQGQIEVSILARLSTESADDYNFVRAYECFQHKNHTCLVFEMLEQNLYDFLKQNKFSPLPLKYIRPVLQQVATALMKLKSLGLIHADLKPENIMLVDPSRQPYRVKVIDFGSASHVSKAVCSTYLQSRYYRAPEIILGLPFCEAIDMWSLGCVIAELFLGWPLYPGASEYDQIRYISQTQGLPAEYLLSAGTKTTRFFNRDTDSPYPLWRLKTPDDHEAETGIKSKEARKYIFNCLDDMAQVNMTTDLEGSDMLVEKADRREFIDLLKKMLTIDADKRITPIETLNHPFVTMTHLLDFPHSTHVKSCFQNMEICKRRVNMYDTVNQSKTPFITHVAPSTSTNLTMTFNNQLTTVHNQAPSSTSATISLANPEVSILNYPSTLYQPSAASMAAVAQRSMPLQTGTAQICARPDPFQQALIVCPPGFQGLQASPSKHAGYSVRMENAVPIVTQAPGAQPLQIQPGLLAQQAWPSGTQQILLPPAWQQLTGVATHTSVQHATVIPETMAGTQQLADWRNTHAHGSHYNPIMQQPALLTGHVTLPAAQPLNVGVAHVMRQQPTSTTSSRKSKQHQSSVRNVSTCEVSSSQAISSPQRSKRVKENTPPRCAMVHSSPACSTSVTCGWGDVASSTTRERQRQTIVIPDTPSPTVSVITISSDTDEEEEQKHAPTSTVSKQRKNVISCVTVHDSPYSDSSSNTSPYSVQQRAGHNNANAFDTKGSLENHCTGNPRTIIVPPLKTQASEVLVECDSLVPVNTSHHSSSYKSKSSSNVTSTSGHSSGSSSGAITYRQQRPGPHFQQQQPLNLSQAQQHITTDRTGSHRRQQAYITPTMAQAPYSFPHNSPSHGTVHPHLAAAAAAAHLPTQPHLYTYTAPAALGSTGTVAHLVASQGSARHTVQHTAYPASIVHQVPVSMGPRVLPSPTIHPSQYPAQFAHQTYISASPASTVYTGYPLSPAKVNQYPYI

[17] = biological target: Interleukin-1 receptor-associated kinase 4 (Homo sapiens, UniProt Q9NWZ3); format: functional
[18] = biological target: Glycogen synthase kinase-3 beta (Homo sapiens, UniProt P49841); format: functional;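 further: value comes from a broad kinome profiling panel, with GSK3B as the panel member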
[19] = biological target: cAMP-dependent protein kinase catalytic subunit alpha (Homo sapiens, UniProt P17612); format: functional
[20] = biological target: Dual specificity protein kinase CLK4 (Homo sapiens, UniProt Q9HAZ1); format: functional
Sequence of Dual specificity protein kinase CLK4 (Q9HAZ1 whole entry): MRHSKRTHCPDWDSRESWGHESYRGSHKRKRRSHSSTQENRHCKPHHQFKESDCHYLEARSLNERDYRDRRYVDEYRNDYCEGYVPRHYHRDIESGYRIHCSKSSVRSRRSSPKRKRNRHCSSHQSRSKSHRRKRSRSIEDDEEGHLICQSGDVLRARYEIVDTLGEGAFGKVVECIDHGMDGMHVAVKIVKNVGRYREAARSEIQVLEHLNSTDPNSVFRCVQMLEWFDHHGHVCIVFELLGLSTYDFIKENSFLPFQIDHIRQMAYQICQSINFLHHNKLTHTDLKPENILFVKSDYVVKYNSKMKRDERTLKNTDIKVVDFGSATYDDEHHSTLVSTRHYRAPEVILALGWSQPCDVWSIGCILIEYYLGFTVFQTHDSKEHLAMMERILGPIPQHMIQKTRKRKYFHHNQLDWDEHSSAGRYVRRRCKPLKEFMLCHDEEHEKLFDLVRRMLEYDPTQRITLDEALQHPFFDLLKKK

[21] = biological target: Mitogen-activated protein kinase kinase kinase kinase 4 (Homo sapiens, UniProt O95819); format: functional
Interleukin-8 [22] = biological target: T3, Interleukin-8 (Homo sapiens, UniProt P10145); assay: Dose Response confirmation of uHTS small molecule hits for cystic fibrosis induced NFkb Inhibitors in a TNFa-induced IL8 counterscreen.; format: functional; settings: read-out: IC50_Mean
T3 sequence (P10145 whole entry): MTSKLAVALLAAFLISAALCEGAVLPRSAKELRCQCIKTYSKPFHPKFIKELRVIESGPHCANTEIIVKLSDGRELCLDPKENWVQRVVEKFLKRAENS

[23] = biological target: T4, DNA repair and recombination protein RAD54-like (Homo sapiens, UniProt Q92698); assay: RAD54 Holliday junction migration blockers – biochemical, fluorescence, cherry-picked samples, dose series, confirmation (AID 651657); format: functional
T4 sequence (Q92698 whole entry): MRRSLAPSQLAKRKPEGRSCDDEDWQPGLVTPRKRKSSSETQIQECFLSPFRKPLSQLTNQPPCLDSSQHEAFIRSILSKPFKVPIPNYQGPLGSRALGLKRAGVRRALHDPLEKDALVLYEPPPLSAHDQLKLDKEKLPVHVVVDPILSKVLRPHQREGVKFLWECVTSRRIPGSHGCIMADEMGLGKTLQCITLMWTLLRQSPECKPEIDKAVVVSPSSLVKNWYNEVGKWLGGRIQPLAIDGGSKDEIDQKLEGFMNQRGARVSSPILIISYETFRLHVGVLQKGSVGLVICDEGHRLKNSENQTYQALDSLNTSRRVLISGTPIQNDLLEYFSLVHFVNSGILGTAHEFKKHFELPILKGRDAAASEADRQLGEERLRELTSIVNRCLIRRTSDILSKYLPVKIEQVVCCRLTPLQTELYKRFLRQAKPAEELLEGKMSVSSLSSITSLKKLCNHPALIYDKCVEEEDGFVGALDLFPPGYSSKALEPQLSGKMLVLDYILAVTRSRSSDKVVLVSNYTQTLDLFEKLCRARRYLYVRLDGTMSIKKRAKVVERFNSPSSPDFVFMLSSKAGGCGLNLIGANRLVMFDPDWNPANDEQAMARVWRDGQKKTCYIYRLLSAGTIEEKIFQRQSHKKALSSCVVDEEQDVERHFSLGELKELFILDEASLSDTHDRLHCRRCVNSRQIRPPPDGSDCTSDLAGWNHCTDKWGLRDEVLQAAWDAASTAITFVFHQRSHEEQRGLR

Interleukin-8 [24] = biological target: T3, Interleukin-8; assay: Dose Response confirmation of uHTS small molecule hits for cystic fibrosis induced NFkb Inhibitors in a PAF-induced IL8 counterscreen.; format: functional; settings: read-out: IC50_Mean
Kallikrein-7 = Kallikrein-7 (Homo sapiens, UniProt P49862); assay: Fluorescence Intensity-based biochemical primary high throughput dose response assay to identify activators of kallikrein-7 (K7) zymogen.
Sequence of Kallikrein-7 (P49862 whole entry): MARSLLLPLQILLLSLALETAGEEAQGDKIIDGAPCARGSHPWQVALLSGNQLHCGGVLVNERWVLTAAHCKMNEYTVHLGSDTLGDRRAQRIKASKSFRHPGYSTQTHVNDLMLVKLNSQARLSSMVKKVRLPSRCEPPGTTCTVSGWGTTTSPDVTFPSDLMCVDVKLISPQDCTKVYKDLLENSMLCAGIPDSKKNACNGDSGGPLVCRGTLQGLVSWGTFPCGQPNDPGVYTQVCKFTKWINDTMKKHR

[25] = biological target: Ras and Rab interactor 1/Tyrosine-protein kinase ABL1 (Homo sapiens, UniProt P00519+Q13671); format: functional;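 further: biochemical TR-FRET dose-response test measuring inhibition of binding between Rin1 and Abl proteins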
[26] = biological target: T5, Apoptotic protease-activating factor 1 (Homo sapiens, UniProt O14727); assay: SAR analysis of small molecule Activators of Apaf-1 in a Fluorescent assay.; format: functional; settings: read-out: EC50_Mean;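 further: caspase-3 cleavage of fluorogenic Rh110 DEVD substrate downstream of apoptosome activation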
T5 sequence (O14727 whole entry): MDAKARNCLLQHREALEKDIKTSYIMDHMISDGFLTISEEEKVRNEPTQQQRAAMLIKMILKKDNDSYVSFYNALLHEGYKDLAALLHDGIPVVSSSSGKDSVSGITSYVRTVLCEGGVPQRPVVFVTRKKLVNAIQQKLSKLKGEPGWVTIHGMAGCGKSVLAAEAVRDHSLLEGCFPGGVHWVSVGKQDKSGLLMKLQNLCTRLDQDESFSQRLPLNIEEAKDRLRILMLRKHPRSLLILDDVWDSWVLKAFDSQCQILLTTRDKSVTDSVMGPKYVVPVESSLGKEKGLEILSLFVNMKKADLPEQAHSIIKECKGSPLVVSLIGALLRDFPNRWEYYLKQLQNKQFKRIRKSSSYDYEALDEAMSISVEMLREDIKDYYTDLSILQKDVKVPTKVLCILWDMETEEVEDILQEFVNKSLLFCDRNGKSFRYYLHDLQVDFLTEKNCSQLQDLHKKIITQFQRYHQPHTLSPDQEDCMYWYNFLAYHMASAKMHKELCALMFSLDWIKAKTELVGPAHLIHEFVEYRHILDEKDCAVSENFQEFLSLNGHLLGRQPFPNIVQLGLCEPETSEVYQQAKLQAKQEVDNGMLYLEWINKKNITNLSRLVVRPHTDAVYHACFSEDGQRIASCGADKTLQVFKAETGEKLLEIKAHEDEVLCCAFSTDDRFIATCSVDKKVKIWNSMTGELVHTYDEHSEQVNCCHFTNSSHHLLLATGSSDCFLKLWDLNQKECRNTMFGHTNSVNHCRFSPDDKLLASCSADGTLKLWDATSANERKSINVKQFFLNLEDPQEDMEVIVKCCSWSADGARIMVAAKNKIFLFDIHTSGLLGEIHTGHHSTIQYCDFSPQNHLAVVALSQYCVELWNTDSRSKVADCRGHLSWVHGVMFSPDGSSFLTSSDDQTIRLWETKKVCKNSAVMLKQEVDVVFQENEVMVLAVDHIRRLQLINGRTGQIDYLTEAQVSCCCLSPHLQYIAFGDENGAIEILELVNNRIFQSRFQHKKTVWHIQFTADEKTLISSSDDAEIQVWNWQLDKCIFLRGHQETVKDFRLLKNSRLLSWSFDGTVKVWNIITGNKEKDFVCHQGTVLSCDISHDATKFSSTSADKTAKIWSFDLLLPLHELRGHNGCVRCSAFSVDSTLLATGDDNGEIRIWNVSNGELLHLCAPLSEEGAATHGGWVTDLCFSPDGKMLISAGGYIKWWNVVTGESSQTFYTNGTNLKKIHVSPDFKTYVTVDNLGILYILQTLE

Sequence of 26S proteasome non-ATPase regulatory subunit 14 (O00487 whole entry): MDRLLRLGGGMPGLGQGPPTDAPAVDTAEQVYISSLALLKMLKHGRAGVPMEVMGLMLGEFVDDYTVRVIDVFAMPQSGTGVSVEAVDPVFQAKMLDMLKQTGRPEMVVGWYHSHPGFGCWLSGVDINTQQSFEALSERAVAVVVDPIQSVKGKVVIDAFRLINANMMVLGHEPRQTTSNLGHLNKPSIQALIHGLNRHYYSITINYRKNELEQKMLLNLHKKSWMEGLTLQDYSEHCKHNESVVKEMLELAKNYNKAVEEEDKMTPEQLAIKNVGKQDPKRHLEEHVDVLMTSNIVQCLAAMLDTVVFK

Compound: O=C(Oc1c(Cl)cc(Cl)c2cccnc12)c1ccco1
EC50 [5]: 56.7 µM (inconclusive) | EC50 [6]: 0.098 µM (active) | EC50 [7]: 2.12 µM (active) | EC50 [8]: > 180 µM (inactive) | EC50 [9]: 10.1 µM (active) | IC50 (Beta-galactosidase): > 66.6 µM (inactive) | AC50 [10]: < 0.195 µM (active) | EC50 [11]: 15.3 µM (active) | AC50 [12]: 2.63 µM (active)

Compound: O=C(Oc1ccccc1)c1cccc(C(=O)Oc2ccccc2)c1
AC50 [13]: 7.94 µM (inconclusive)

Compound: COc1ccc2c(c1)[nH]c1c(C)nccc12 [HARMINE HYDROCHLORIDE]
IC50 (Interleukin-8 [22]): > 79 µM (inactive) | AC50 [23]: 14.4 µM (active) | IC50 (Interleukin-8 [24]): 6.96 µM (active) | EC50 (Kallikrein-7): 24.8 µM (inactive)

Compound: COC(=O)Nc1csc2c1NC(=O)CCCC2
IC50 [25]: 5.54 µM (active)

The next lines start with results.

IC50 [1]: 22.5 µM (active) | IC50 [2]: > 100 µM (inactive) | IC50 (Prothrombin): 17.7 µM (active)
Compound: COc1ccc(Cc2c(C(C)(C)C)nc3ccc(Cl)cn23)c(C)c1

IC50 [4]: > 20 µM (inactive)
Compound: Cc1ccc(Nc2nc(N)nc(CN3CCCCCC3)n2)cc1
AC50 [3]: 117 µM (active)

EC50 (Melanocortin receptor 4): > 89.2 µM (inactive)
Compound: N#C/C(=C\c1cn(CCOc2ccccc2F)c2ccccc12)C(=O)NCc1cccs1

Ki [14]: 0.794 µM (active) | Ki [15]: 0.002 µM (active) | Ki [16]: 0.0631 µM (active) | Ki [17]: 0.794 µM (active) | Ki [18]: 0.251 µM (active) | Ki [19]: 0.251 µM (active) | Ki [20]: 0.00631 µM (active) | Ki [21]: 0.01 µM (active)
Compound: COCC(C)Nc1cc(-c2c[nH]c3ncccc23)cc(Cl)n1 (stereo not given)

EC50 [26]: > 100 µM (inactive)
Compound: CC(C)C(=O)Nc1ccc(N)cc1

From ChEMBL document CHEMBL1201862, “PubChem BioAssay data set” (2004)
